From ChEMBL document CHEMBL3758137 (Eur J Med Chem, 2016)

Columns and labels:
[1] = Antiproliferative activity against human EBC1 cells after 72 hrs by SRB assay; details: EBC-1, 72 h
[2] = molecular target: Hepatocyte growth factor receptor (Homo sapiens, UniProt P08581); experiment: Inhibition of recombinant c-Met (unknown origin) using poly (Glu,Tyr)4:1 as substrate after 60 mins by ELISA
Liver microsome [3] = experiment: Intrinsic clearance in rat liver microsomes at 0.1 uM after 7 to 60 mins by LC-MS/MS analysis; assay type: ADME
[4] = Apparent permeability from apical to basolateral side in human Caco2 cells after 35 to 95 mins by LC-MS/MS analysis; assay type: ADME, cell-based; details: Caco-2
Liver microsome [5] = experiment: Intrinsic clearance in human liver microsomes at 0.1 uM after 7 to 60 mins by LC-MS/MS analysis; assay type: ADME
[6] = Solubility of compound in TRIS buffer by nephelometric analysis in presence of 0.1% BSA; assay type: physicochemical; details: TRIS buffer with 0.1% BSA
[7] = Apparent permeability from basolateral to apical side in human Caco2 cells after 35 to 95 mins by LC-MS/MS analysis; assay type: ADME, cell-based; details: Caco-2
[8] = Solubility of compound in HBSS/HEPES buffer at pH 7.4 by nephelometric analysis in presence of 0.1% BSA; assay type: physicochemical; details: HBSS/HEPES buffer with 0.1% BSA
[9] = Solubility of compound in HBSS/HEPES buffer at pH 6.8 by nephelometric analysis in presence of 0.1% BSA; assay type: physicochemical; details: HBSS/HEPES buffer with 0.1% BSA
[10] = Intrinsic clearance in mouse liver microsomes at 0.1 uM after 7 to 60 mins by LC-MS/MS analysis; assay type: ADME
[11] = Antitumor activity against human EBC1 cells xenografted in nude mouse assessed as tumor growth inhibition at 50 mg/kg, po qd administered for 21 days relative to control; assay type: functional; details: EBC-1, po, 504 h, read-out: TGI

Hepatocyte growth factor receptor, sequence (P08581 whole entry): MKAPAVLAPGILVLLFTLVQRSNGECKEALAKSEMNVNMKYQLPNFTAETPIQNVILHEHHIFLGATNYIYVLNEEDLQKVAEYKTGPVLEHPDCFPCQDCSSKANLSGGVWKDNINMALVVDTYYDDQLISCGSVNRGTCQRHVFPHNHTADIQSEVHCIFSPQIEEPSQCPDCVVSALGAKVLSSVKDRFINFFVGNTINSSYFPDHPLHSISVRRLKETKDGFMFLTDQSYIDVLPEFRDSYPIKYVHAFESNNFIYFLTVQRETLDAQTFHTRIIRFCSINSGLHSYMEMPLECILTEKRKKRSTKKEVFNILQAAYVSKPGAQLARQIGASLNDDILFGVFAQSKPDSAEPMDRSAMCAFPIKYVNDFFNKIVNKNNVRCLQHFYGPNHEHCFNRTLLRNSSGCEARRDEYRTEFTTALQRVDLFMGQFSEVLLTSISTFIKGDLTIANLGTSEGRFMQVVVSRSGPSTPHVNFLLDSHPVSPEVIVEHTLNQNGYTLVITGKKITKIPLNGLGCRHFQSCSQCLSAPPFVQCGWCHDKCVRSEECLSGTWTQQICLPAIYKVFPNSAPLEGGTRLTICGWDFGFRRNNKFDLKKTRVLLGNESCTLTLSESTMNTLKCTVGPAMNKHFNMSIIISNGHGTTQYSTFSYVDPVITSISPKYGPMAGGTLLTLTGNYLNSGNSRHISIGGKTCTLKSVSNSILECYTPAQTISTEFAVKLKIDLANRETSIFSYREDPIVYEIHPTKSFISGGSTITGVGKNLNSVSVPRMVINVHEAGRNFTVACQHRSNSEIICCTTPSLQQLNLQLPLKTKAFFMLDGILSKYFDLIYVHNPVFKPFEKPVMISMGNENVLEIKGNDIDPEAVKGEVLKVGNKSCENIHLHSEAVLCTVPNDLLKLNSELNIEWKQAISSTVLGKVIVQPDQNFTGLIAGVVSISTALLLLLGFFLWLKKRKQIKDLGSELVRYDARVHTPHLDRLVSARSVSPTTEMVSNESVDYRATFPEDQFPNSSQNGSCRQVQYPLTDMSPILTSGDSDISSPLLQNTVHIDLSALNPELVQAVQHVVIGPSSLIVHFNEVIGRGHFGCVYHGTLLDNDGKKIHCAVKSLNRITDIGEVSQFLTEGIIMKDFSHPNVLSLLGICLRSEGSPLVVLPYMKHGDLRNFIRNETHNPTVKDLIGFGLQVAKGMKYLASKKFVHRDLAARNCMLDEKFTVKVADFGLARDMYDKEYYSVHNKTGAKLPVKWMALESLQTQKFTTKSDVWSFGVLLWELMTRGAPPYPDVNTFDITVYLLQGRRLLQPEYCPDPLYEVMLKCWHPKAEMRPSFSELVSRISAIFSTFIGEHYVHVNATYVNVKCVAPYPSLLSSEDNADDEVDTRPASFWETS

Structure (SMILES)	IC50 [1]	also measured
Cn1cc(-c2ccc(=O)n(Cc3cccc(Nc4nc5ccccc5[nH]4)c3)n2)cn1	> 0.2 µM	IC50 [2]: > 0.1 µM
Cn1cc(-c2ccc(Nc3cccc(Cn4nc(-c5cnn(C)c5)ccc4=O)c3)nc2)cn1	> 0.2 µM	IC50 [2]: > 0.1 µM
Cn1cc(-c2ccc(=O)n(Cc3cccc(Nc4ncn(C)n4)c3)n2)cn1	> 0.2 µM	IC50 [2]: > 0.1 µM
Cn1cc(-c2ccc(=O)n(Cc3cccc(Nc4ncccn4)c3)n2)cn1	> 0.2 µM	IC50 [2]: > 0.1 µM
Cn1cc(-c2cnc(Nc3cccc(Cn4nc(-c5ccc(Cl)c(C(F)(F)F)c5)ccc4=O)c3)nc2)cn1	0.065 µM	
CNC(=O)c1ccc(-c2ccc(=O)n(Cc3cccc(Nc4ncc(-c5cnn(C)c5)cn4)c3)n2)cc1F	0.0313 µM	CLH (Liver microsome [3]): 64 mL/min/g; Papp A→B [4]: 1.7 ×10⁻⁶ cm/s; CLH (Liver microsome [5]): 28 mL/min/g; solubility kinetic [6]: 2 µM; Papp B→A [7]: 17.4 ×10⁻⁶ cm/s; solubility kinetic [8]: 2 µM; solubility kinetic [9]: 2 µM; CLH [10]: 50 mL/min/g
CN1CCN(Cc2cnc(Nc3cccc(Cn4nc(-c5cnn(C)c5)ccc4=O)c3)nc2)CC1	> 0.2 µM	IC50 [2]: > 0.1 µM
Cn1cc(-c2cnc(Nc3cccc(Cn4nc(-c5ccc(S(C)(=O)=O)cc5)ccc4=O)c3)nc2)cn1	0.0734 µM	
Cn1cc(-c2ccnc(Nc3cccc(Cn4nc(-c5cnn(C)c5)ccc4=O)c3)n2)cn1	> 0.2 µM	IC50 [2]: > 0.1 µM
Cn1cc(-c2cnc(Nc3cccc(Cn4nc(-c5cccc(S(C)(=O)=O)c5)ccc4=O)c3)nc2)cn1	> 0.2 µM	
Cn1cc(-c2cnc(Nc3cccc(Cn4nc(-c5cnn(CCO)c5)ccc4=O)c3)nc2)cn1	0.0998 µM	
Cn1cc(-c2cnc(Nc3cccc(Cn4nc(-c5ccncc5)ccc4=O)c3)nc2)cn1	> 0.2 µM	
CN(C)C(=O)c1ccc(-c2ccc(=O)n(Cc3cccc(Nc4ncc(-c5cnn(C)c5)cn4)c3)n2)cc1F	0.102 µM	
Cn1cc(-c2ccc(=O)n(Cc3cccc(Nc4ncc(-c5cccnc5)cn4)c3)n2)cn1	> 0.2 µM	
Cn1cc(-c2cnc(Nc3cccc(Cn4nc(-c5ccc(C(=O)O)c(F)c5)ccc4=O)c3)nc2)cn1	> 0.2 µM	
Cn1cc(-c2cnc(Nc3cccc(Cn4nc(-c5cccc(C#N)c5)ccc4=O)c3)nc2)cn1	0.108 µM	
Cn1cc(-c2cnc(Nc3cccc(Cn4nc(-c5cccc(C(=O)O)c5)ccc4=O)c3)nc2)cn1	> 0.2 µM	
Cn1cc(-c2ccc(=O)n(Cc3cccc(Nc4ncc(-c5cncs5)cn4)c3)n2)cn1	> 0.2 µM	
COCCOc1cnc(Nc2cccc(Cn3nc(-c4cnn(C)c4)ccc3=O)c2)nc1	> 0.2 µM	
CC(C)n1cc(-c2cnc(Nc3cccc(Cn4nc(-c5cnn(C)c5)ccc4=O)c3)nc2)cn1	0.0946 µM	
CN1CCC(n2cc(-c3cnc(Nc4cccc(Cn5nc(-c6cnn(C)c6)ccc5=O)c4)nc3)cn2)CC1	0.065 µM	
Cn1cc(-c2ccc(=O)n(Cc3cccc(Nc4ncc(-c5cnn(CCO)c5)cn4)c3)n2)cn1	0.0487 µM	
Cn1cc(-c2cnc(Nc3cccc(Cn4nc(-c5cccnc5)ccc4=O)c3)nc2)cn1	> 0.2 µM	
C[C@@H](Oc1cc(-c2cnn(C3CCNCC3)c2)cnc1N)c1c(Cl)ccc(F)c1Cl [CRIZOTINIB]	0.019 µM	inhibition in vivo at 50 mg/kg [11]: 108%
